From ChEMBL document CHEMBL3885861, “Open TG-GATES”

Species: Rattus norvegicus
Experiment: Open TG-GATES - Regimen: Daily Repeat
Type: toxicity, organism-based, Sprague-Dawley
Set-up: regimen Daily Repeat, gender Male, age 6 weeks
Settings: in vivo, po, 15 mg/kg, route gavage, dose level High; for APTT / Bas / Eos / Fbg / Hb / Ht / Lym / MCH / MCHC / MCV / Mono / Neu / PT / Plat / RBC / Ret / WBC: tissue Blood; for KIDNEY_L / KIDNEY_R / KIDNEY_TOTAL: tissue Kidney; for LIVER: tissue Liver; for ALP / ALT / AST / BUN / CRE / Ca / Cl / DBIL / GLC / IP / K / LDH / Na / PL / RALB / TBIL / TC / TG / TP / gamma-GTP: tissue Plasma

O=P1(N(CCCl)CCCl)NCCCO1 (stereo not drawn) [CYCLOPHOSPHAMIDE ANHYDROUS]
TERMINAL_BW (72 h, time 3 day): 216.4 g | APTT (72 h, time 3 day): 19.7 s | Bas (72 h, time 3 day): 0% | Eos (72 h, time 3 day): 1% | Fbg (72 h, time 3 day): 279.6 mg/dL | Hb (72 h, time 3 day): 12.9 g/dL | Ht (72 h, time 3 day): 38.7% | Lym (72 h, time 3 day): 73.8% | MCH (72 h, time 3 day): 21.8 pg | MCHC (72 h, time 3 day): 33.3% | MCV (72 h, time 3 day): 65.5 fL | Mono (72 h, time 3 day): 1.4% | Neu (72 h, time 3 day): 23.8% | PT (72 h, time 3 day): 16.8 s | Plat (72 h, time 3 day): 121.4 x10_4/uL | RBC (72 h, time 3 day): 590.2 x10_4/ul | Ret (72 h, time 3 day): 1.6% | WBC (72 h, time 3 day): 25.1 x10_2/uL | KIDNEY_L (72 h, time 3 day): 1 g | KIDNEY_R (72 h, time 3 day): 1 g | KIDNEY_TOTAL (72 h, time 3 day): 1.9 g | LIVER (72 h, time 3 day): 10.1 g | ALP (72 h, time 3 day): 1493.4 IU/L | ALT (72 h, time 3 day): 36.8 IU/L | AST (72 h, time 3 day): 65.2 IU/L | BUN (72 h, time 3 day): 16.4 mg/dL | CRE (72 h, time 3 day): 0.2 mg/dL | Ca (72 h, time 3 day): 10.6 mg/dL | Cl (72 h, time 3 day): 106.4 meq/L | DBIL (72 h, time 3 day): 0 mg/dL | GLC (72 h, time 3 day): 187.6 mg/dL | IP (72 h, time 3 day): 7.8 mg/dL | K (72 h, time 3 day): 3.9 meq/L | LDH (72 h, time 3 day): 169.2 IU/L | Na (72 h, time 3 day): 142.6 meq/L | PL (72 h, time 3 day): 148.2 mg/dL | RALB (72 h, time 3 day): 2.9 g/dL | TBIL (72 h, time 3 day): 0.008 mg/dL | TC (72 h, time 3 day): 78.8 mg/dL | TG (72 h, time 3 day): 95 mg/dL | TP (72 h, time 3 day): 5.5 g/dL | gamma-GTP (72 h, time 3 day): 1 IU/L | TERMINAL_BW ([…], time 7 day): 231.7 g | TERMINAL_BW ([…], time 14 day): 252.5 g | TERMINAL_BW ([…], time 28 day): 239.3 g | APTT ([…], time 7 day): 22.1 s | Bas ([…], time 7 day): 0% | Eos ([…], time 7 day): 1% | Fbg ([…], time 7 day): 277.2 mg/dL | Hb ([…], time 7 day): 13.1 g/dL | Ht ([…], time 7 day): 38.8% | Lym ([…], time 7 day): 77% | MCH ([…], time 7 day): 21 pg | MCHC ([…], time 7 day): 33.6% | MCV ([…], time 7 day): 62.5 fL | Mono ([…], time 7 day): 1.2% | Neu ([…], time 7 day): 20.4% | PT ([…], time 7 day): 15.2 s | Plat ([…], time 7 day): 81.8 x10_4/uL | RBC ([…], time 7 day): 622 x10_4/ul | Ret ([…], time 7 day): 2.8% | WBC ([…], time 7 day): 12.8 x10_2/uL | APTT ([…], time 14 day): 21 s | Bas ([…], time 14 day): 0% | Eos ([…], time 14 day): 0.8% | Fbg ([…], time 14 day): 278.4 mg/dL | Hb ([…], time 14 day): 12.8 g/dL | Ht ([…], time 14 day): 37.3% | Lym ([…], time 14 day): 63% | MCH ([…], time 14 day): 21.1 pg | MCHC ([…], time 14 day): 34.2% | MCV ([…], time 14 day): 61.8 fL | Mono ([…], time 14 day): 3% | Neu ([…], time 14 day): 32.2% | PT ([…], time 14 day): 14.1 s | Plat ([…], time 14 day): 107 x10_4/uL | RBC ([…], time 14 day): 604.8 x10_4/ul | Ret ([…], time 14 day): 2.3% | WBC ([…], time 14 day): 4.7 x10_2/uL | APTT ([…], time 28 day): 20.4 s | Bas ([…], time 28 day): 0% | Eos ([…], time 28 day): 2% | Fbg ([…], time 28 day): 277.6 mg/dL | Hb ([…], time 28 day): 9.3 g/dL | Ht ([…], time 28 day): 27.9% | Lym ([…], time 28 day): 20.8% | MCH ([…], time 28 day): 20.7 pg | MCHC ([…], time 28 day): 33.5% | MCV ([…], time 28 day): 62 fL | Mono ([…], time 28 day): 3.8% | Neu ([…], time 28 day): 69.2% | PT ([…], time 28 day): 17.7 s | Plat ([…], time 28 day): 79.2 x10_4/uL | RBC ([…], time 28 day): 448 x10_4/ul | Ret ([…], time 28 day): 8.3% | WBC ([…], time 28 day): 17.2 x10_2/uL | KIDNEY_L ([…], time 7 day): 0.9 g | KIDNEY_R ([…], time 7 day): 1 g | KIDNEY_TOTAL ([…], time 7 day): 1.9 g | KIDNEY_L ([…], time 14 day): 1 g | KIDNEY_R ([…], time 14 day): 1 g | KIDNEY_TOTAL ([…], time 14 day): 2.1 g | KIDNEY_L ([…], time 28 day): 1.1 g | KIDNEY_R ([…], time 28 day): 1.1 g | KIDNEY_TOTAL ([…], time 28 day): 2.1 g | LIVER ([…], time 7 day): 10.9 g | LIVER ([…], time 14 day): 11.4 g | LIVER ([…], time 28 day): 9.6 g | ALP ([…], time 7 day): 1013 IU/L | ALT ([…], time 7 day): 32.2 IU/L | AST ([…], time 7 day): 59 IU/L | BUN ([…], time 7 day): 16.6 mg/dL | CRE ([…], time 7 day): 0.2 mg/dL | Ca ([…], time 7 day): 10.8 mg/dL | Cl ([…], time 7 day): 106.8 meq/L | DBIL ([…], time 7 day): 0 mg/dL | GLC ([…], time 7 day): 178.8 mg/dL | IP ([…], time 7 day): 6.5 mg/dL | K ([…], time 7 day): 4.1 meq/L | LDH ([…], time 7 day): 200 IU/L | Na ([…], time 7 day): 143 meq/L | PL ([…], time 7 day): 144.8 mg/dL | RALB ([…], time 7 day): 2.8 g/dL | TBIL ([…], time 7 day): 0.018 mg/dL | TC ([…], time 7 day): 71.2 mg/dL | TG ([…], time 7 day): 139.6 mg/dL | TP ([…], time 7 day): 5.4 g/dL | gamma-GTP ([…], time 7 day): 1 IU/L | ALP ([…], time 14 day): 573.6 IU/L | ALT ([…], time 14 day): 19.8 IU/L | AST ([…], time 14 day): 40.8 IU/L | BUN ([…], time 14 day): 18.6 mg/dL | CRE ([…], time 14 day): 0.2 mg/dL | Ca ([…], time 14 day): 10.4 mg/dL | Cl ([…], time 14 day): 109.8 meq/L | DBIL ([…], time 14 day): 0.002 mg/dL | GLC ([…], time 14 day): 175.6 mg/dL | IP ([…], time 14 day): 6.2 mg/dL | K ([…], time 14 day): 4.2 meq/L | LDH ([…], time 14 day): 136 IU/L | Na ([…], time 14 day): 143.4 meq/L | PL ([…], time 14 day): 146 mg/dL | RALB ([…], time 14 day): 2.8 g/dL | TBIL ([…], time 14 day): 0.016 mg/dL | TC ([…], time 14 day): 73.6 mg/dL | TG ([…], time 14 day): 142.4 mg/dL | TP ([…], time 14 day): 5.4 g/dL | gamma-GTP ([…], time 14 day): 1.2 IU/L | ALP ([…], time 28 day): 471.2 IU/L | ALT ([…], time 28 day): 35.8 IU/L | AST ([…], time 28 day): 104.8 IU/L | BUN ([…], time 28 day): 30 mg/dL | CRE ([…], time 28 day): 0.2 mg/dL | Ca ([…], time 28 day): 9.7 mg/dL | Cl ([…], time 28 day): 114.2 meq/L | DBIL ([…], time 28 day): 0.05 mg/dL | GLC ([…], time 28 day): 165.6 mg/dL | IP ([…], time 28 day): 7.3 mg/dL | K ([…], time 28 day): 3.9 meq/L | LDH ([…], time 28 day): 516.4 IU/L | Na ([…], time 28 day): 145.8 meq/L | PL ([…], time 28 day): 122 mg/dL | RALB ([…], time 28 day): 2.6 g/dL | TBIL ([…], time 28 day): 0.1 mg/dL | TC ([…], time 28 day): 69.6 mg/dL | TG ([…], time 28 day): 74.4 mg/dL | TP ([…], time 28 day): 5.1 g/dL | gamma-GTP ([…], time 28 day): 1.6 IU/L
